Results reported in US20260174682A1, “GAMMA-AMINOBUTYRIC ACID DERIVATIVE COMPRISING POLYCYCLIC STRUCTURE, METHOD FOR PREPARING SAME, AND USE THEREOF” (ZHONGSHAN INSTITUTE FOR DRUG DISCOVERY, SIMM, CAS., priority 2022, published 2026).
Marks after values point to notes of the source that are not given here.

Key:
[1] = tested on: mouse model with subcutaneous injection of pentylenetetrazole (sc-PTZ); experiment: Antiepileptic effect in mouse model with subcutaneous injection of pentylenetetrazole (sc-PTZ); assay type: in vivo; settings: for Clonic seizure incidence / Convulsive seizure incidence / Generalized clonic seizure incidence / Mortality / Tonic seizure incidence: sc-PTZ 100 mg/kg, ICR mice, intraperitoneal 30 mg/kg (own compounds calculated by free base), 1 h observation; for latent periods of generalized clonic seizures, tonic seizures and death: 30 mg/kg (calculated by free base), FIG. 6
Protocol: A negative vehicle control group, a positive drug control group (pregabalin and gabapentin) and a test group of the compounds of the present application were set. Male ICR mice with a body weight of 22±2 g were selected. […] After fasted for 12 h, the mice were administered the compounds of the present application or the control drugs, and then subcutaneously injected with pentylenetetrazole (PTZ) to induce epilepsy seizure behaviors after a certain time interval (2 h for pregabalin, 1 h for gabapentin, and 3 h for the compounds of the present application). In an induction model, pentylenetetrazole (PTZ) was dissolved in normal saline and administered to the mice through the way of subcutaneous injection (10 mL/kg, administration dose 100 mg/kg). After the injection of PTZ, behavioral observations on the mice were conducted for 1 h, and the latent periods and numbers of the mice with convulsive seizures, clonic seizures, tonic seizures and death after the injection of PTZ were recorded.
Statistical method: Protection rates and mortality of different administration groups were separately compared with those of the vehicle control group to carry out a Fisher's exact test. The seizure time and the latent periods were analyzed by one-way ANOVA.

motor functions of rats = experiment: Rotarod test of impact on motor functions of rats; settings: male SD rats; for impact on rotarod behaviors of the rats: gavage 10 mg/kg (calculated by free base); for impact on rotarod behaviors of the rats / impact on rotarod behaviors of the rats (impacted proportion): FIG. 7; for impact on rotarod behaviors of the rats (impacted proportion): gavage 30 mg/kg (calculated by free base)
Protocol: A negative vehicle control, a positive drug control group (pregabalin, (PGB), 10 mg/kg, 30 mg/kg) were set, and a test group (including (+)—I-3 p-toluenesulfonate at 10 mg/kg (calculated by free base), (+)—I-4 p-toluenesulfonate at 10 mg/kg (calculated by free base), (+)—I-3 p-toluenesulfonate at 30 mg/kg (calculated by free base) and (+)—I-4 p-toluenesulfonate at 30 mg/kg (calculated by free base)) were set. Male SD rats with the body weight of 200-250 g were selected, with 10 animals in each administration group. AYLS-31A fatigue rota-rod (Shanghai Xinruan Information Technology Co., Ltd.) was used as rotarod test equipment, and a rotation speed was set at a constant speed of 6 rpm. A screening test was carried out on the first day. Tail tips of the rats were pinched, placed on the rotarod, and released the same after the rats maintained balance on the rotarod and moved along with the rotarod. The falling number of the rats within the next 1 min was recorded and counted. The rats that fell for 3 times within 1 min were excluded, which were not used for subsequent drug evaluation. A drug evaluation test was carried out on the second day. The rats were fasted for 8 h before the test, then a rotarod test was carried out once to serve as a time point (BL) before administration, and then administration was performed by gavage. […] The falling number of the rats within 1 min was recorded and counted. The rats falling for 3 times within one min were regarded as having “motor function impairments” caused by drug toxicity. The “motor function impairment” degree (rotarod fall) of each administration group at a specific time point was calculated as a proportion of a number of the animals with “motor function impairments” in the group to a total number of the animals in the group.
The rotarod test is a classic test for measuring the damage of compounds to motor functions of animals.

[2] = molecular target: T1, human recombinant calcium ion channel Cav2.2/β3/α2δ-1 (Homo sapiens, UniProt P54289); experiment: In vitro binding to human recombinant calcium ion channel Cav2.2/β3/α2δ-1 ([3H]gabapentin competition)
T1 construct: expressed in transfected cells; host or cells: CHO cells (membranes)
Description: Example 28 In Vitro Binding of Compounds to Human Recombinant Calcium Ion Channel Cav2.2/β3/α2δ-1
There are four subtypes of the voltage-gated calcium ion channel α2δ subunit, α2δ-1, α2δ-2, α2δ-3 and α2δ-4, in which α2δ-1 is the subtype that mediates chronic neuropathic pain (Field, M. J. et al.; Proc. Natl. Acad. Sci. U.S.A. 2006, 103, 17537-17542). Therefore, the binding strength of a compound to α2δ-1 is a direct indicator for measuring an analgesic effect thereof on the chronic neuropathic pain (Calandre, E. P. et al.; Expert Rev. Neuroether. 2016, 16, 1263-1277).
The in vitro binding strength of the compound of the present application to human recombinant calcium ion channel Cav2.2/β3/α2δ-1 is basically operated according to a reported method (Gee, N. S. et al.; J. Biol. Chem. 1996, 271, 5768-5776; Marais, E. et al.; Mol. Pharmacol. 2001, 59, 1243-1248). CHO cells expressing the human recombinant calcium ion channel Cav2.2/β3/α2δ-1 were used in the test. After routine separation of cell membranes, 3 μg of the cell membranes were added into each well with a modified HEPES/KOH buffer solution (pH 7.4) as a solution of the test system. Then, 5 nM [^3H]gabapentin and the compound to be tested at 6 concentrations (3, 9, 27, 81, 243, and 729 nM) were added, and the test system was incubated at 25° C. for 120 min. Non-specific binding was obtained by replacing the compound to be tested in the above test system with […] gabapentin. After the incubation was completed, the cell membranes were collected by filtration and washed with 50 mM Tris-HCl (pH 7.4), and then the radioactivity of [^3H]gabapentin bound to the cell membranes was tested by a liquid scintillation technology. […] An inhibition rate of the compound of the present application on the binding of the [^3H]gabapentin to the human recombinant calcium ion channel Cav2.2/β3/α2δ-1 was calculated according to the following formula: […]
wherein • I is the radioactivity corresponding to that the compound to be tested and [^3H]gabapentin are simultaneously co-incubated with the human recombinant calcium ion channel Cav2.2/β3/α2δ-1, • I0 is the radioactivity corresponding to co-incubation of [^3H]gabapentin and the human recombinant calcium ion channel Cav2.2/β3/α2δ-1 without adding the compound to be tested into the incubation system, and • IU is the radioactivity corresponding to that 10 μM gabapentin and [^3H]gabapentin are simultaneously co-incubated with the human recombinant calcium ion channel Cav2.2/β3/α2δ-1.
The concentration of the compound to be tested that inhibits 50% of the binding of [^3H]gabapentin to the human recombinant calcium ion channel Cav2.2/β3/α2δ-1 is defined as IC50, and the IC50 is calculated by nonlinear least squares regression analysis using the above inhibition rate (MathIQ™, ID Business Solutions Ltd., UK).

T1 sequence (P54289 25-956 limits assumed): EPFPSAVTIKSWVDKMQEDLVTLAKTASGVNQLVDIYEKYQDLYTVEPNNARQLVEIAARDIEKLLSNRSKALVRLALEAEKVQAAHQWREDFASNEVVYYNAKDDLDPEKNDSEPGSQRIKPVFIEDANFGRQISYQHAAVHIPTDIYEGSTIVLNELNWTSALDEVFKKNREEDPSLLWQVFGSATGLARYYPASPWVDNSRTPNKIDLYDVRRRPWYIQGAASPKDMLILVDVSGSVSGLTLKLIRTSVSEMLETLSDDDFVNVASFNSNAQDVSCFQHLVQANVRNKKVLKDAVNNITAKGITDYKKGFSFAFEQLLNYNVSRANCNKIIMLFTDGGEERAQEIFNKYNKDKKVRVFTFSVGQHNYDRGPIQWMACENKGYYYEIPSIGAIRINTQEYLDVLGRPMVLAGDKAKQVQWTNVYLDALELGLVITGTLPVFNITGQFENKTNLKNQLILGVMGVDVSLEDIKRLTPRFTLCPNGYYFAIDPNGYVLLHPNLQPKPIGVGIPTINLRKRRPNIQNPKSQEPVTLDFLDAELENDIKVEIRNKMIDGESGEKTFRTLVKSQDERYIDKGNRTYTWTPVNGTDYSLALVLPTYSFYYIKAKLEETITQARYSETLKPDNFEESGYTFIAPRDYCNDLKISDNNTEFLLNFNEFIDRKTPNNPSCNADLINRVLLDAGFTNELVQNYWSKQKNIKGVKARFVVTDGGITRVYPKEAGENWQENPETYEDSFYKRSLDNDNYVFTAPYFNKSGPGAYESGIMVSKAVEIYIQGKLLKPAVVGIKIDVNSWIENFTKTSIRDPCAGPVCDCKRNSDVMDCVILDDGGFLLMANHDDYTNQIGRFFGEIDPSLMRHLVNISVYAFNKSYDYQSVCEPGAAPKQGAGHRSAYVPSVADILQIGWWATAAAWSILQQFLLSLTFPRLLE
T1 sequence (P54289 957-1103 partner limits assumed): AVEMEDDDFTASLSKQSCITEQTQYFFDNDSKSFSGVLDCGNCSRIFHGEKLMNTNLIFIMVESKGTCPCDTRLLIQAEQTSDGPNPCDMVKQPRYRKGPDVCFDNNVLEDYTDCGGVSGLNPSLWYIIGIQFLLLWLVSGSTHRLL
T1 sequence (Q00975 whole entry partner): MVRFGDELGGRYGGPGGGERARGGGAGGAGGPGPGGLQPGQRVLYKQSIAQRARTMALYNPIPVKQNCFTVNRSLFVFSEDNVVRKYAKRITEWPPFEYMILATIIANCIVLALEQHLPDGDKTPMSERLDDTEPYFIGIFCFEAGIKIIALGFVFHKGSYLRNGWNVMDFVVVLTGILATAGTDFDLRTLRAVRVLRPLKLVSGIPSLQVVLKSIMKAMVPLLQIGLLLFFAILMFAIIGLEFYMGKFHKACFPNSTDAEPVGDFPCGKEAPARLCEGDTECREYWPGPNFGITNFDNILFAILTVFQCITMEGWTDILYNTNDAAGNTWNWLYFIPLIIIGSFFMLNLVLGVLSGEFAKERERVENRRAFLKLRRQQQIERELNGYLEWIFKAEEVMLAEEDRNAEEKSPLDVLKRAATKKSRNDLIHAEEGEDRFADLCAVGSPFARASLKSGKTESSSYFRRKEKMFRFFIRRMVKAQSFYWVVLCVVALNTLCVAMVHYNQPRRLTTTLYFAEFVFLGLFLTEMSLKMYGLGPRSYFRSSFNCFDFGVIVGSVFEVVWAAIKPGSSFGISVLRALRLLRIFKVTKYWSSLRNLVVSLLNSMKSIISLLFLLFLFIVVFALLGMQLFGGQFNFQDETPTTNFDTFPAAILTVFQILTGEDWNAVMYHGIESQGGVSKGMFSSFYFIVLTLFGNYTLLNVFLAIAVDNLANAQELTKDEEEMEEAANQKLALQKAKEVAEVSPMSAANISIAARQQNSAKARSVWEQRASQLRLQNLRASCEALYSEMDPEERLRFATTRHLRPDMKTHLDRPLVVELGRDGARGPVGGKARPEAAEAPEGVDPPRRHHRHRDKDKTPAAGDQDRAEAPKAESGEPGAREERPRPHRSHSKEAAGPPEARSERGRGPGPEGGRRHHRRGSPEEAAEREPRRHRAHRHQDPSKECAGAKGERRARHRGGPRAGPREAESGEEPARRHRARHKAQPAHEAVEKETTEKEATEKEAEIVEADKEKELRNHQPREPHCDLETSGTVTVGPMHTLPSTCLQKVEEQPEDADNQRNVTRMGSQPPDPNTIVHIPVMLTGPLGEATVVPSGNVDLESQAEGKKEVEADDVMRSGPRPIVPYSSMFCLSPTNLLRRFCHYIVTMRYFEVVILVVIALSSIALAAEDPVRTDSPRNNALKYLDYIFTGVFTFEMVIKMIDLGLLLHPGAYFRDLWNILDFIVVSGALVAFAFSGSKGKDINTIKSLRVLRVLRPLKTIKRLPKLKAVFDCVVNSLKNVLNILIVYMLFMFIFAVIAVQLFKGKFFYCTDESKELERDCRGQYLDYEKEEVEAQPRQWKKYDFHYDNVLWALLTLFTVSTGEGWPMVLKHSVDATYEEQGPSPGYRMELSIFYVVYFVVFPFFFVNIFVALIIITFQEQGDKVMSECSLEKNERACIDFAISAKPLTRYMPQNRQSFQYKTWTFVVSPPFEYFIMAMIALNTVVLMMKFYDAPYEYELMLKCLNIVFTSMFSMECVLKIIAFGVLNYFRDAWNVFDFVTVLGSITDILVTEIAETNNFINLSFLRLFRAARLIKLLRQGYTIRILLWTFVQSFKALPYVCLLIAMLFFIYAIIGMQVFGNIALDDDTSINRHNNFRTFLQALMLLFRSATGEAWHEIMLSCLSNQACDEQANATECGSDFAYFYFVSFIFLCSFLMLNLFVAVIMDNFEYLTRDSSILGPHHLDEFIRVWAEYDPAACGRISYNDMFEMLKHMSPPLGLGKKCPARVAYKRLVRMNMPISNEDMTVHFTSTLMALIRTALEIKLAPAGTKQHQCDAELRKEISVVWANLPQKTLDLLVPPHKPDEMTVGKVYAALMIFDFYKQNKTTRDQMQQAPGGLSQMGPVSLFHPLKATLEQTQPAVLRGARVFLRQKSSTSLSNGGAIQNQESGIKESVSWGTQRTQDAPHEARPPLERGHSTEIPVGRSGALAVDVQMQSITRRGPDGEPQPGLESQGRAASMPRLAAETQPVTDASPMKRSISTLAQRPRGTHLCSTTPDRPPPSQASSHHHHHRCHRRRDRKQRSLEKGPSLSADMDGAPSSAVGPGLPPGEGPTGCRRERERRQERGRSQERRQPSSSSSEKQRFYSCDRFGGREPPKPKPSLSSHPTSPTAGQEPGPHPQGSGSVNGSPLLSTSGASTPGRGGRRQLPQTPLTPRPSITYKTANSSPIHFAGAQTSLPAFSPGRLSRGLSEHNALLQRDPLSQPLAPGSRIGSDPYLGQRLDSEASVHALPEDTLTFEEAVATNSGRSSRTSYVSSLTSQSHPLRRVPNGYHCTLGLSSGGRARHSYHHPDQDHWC
T1 sequence (P54284 whole entry partner): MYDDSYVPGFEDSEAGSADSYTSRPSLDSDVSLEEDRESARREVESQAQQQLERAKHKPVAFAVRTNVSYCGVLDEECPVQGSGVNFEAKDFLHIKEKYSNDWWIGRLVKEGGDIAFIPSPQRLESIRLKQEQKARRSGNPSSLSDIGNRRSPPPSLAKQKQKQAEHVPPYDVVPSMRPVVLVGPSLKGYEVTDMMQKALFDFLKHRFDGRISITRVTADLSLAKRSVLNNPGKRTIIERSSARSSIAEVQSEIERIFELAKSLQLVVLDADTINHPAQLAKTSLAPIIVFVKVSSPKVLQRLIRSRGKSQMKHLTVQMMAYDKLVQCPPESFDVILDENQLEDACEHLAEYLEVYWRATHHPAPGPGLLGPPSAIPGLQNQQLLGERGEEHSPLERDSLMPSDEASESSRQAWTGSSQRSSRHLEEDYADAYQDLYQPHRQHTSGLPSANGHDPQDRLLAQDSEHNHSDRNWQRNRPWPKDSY

Row | Compound | Clonic seizure incidence [1] | Convulsive seizure incidence [1] | Generalized clonic seizure incidence [1] | Mortality [1] | Tonic seizure incidence [1] | generalized clonic seizures (percent of animals; vehicle 100%) ([1]; sc-PTZ mice, 30 mg/kg) | tonic seizure incidence (percent of animals; vehicle 75%) ([1]; sc-PTZ mice, 30 mg/kg) | latent periods of generalized clonic seizures, tonic seizures and death ([1]; sc-PTZ mice) | impact on rotarod behaviors of the rats (motor functions of rats) | impact on rotarod behaviors of the rats (impacted proportion) (motor functions of rats) | IC50 [2] | mortality (percent of animals; vehicle 75%) ([1]; sc-PTZ mice, 30 mg/kg) | time of maximum impact on the rotarod behaviors after the administration (motor functions of rats; gavage 30 mg/kg)
1 | Cc1ccc(S(=O)(=O)O)cc1.NCC1(CC(=O)O)CC2C3C=CC(C3)C21 (single isomer, unassigned; (+)) [(+)-I-4 p-toluenesulfonate] | 10/10 | 10/10 | 6/10 | 3/10 | 2/10 | 60% | 20% | significantly prolong | no significant impact | smaller than that in the PGB group | – | – | –
2 | CC(C)C[C@H](CN)CC(=O)O [Pregabalin] | 8/8 | 8/8 | 5/8 | 1/8* | 1/8** | 62.5% | 12.5% | significantly prolong | no significant impact | obvious toxic responses | 38 nM | 12.5% | 4 h
